US6642392B1 (priority 1997, dated 2003)
Like-named read-outs stand apart in the source and are kept apart here.

What was measured:
Type in all cases: in vivo
[1] = test system: Pyricularia oryzae; conditions: for Test C disease control rating (100 = 100% disease control, 0 = no disease control): rice seedlings sprayed to run-off, inoculated the following day, rating relative to controls, unmarked compounds (standard test rate); for Test C disease control rating: rice blast
[2] = test system: Botrytis cinerea; test: Test E: gray mold, preventive spray on cucumber seedlings; conditions: for Test E disease control rating (100 = 100% disease control, 0 = no disease control): cucumber seedlings sprayed to run-off, inoculated the following day, rating relative to controls, unmarked compounds (standard test rate); for Test E disease control rating: gray mold on cucumber
Outline: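 Compounds in 3% acetone were suspended with 250 ppm Trem 014 surfactant and sprayed to run-off on cucumber seedlings. B. cinerea spores were inoculated next day, then 48 h saturated humidity at 20° C and 5 days at 20° C. Disease control rated 0–100% versus controls.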

[3] = test system: Eiysiphe graminis f. sp. tritici; test: Test A: wheat powdery mildew, preventive spray on wheat seedlings; conditions: for Test A disease control rating (100 = 100% disease control, 0 = no disease control): wheat seedlings sprayed to run-off, inoculated the following day, rating relative to controls, unmarked compounds (standard test rate); for Test A disease control rating: wheat powdery mildew
Outline: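 Compounds (3% acetone, 250 ppm Trem 014) sprayed to run-off on wheat seedlings, inoculated next day with spore dust. Incubated 7 days at 20° C before disease rating, 0–100% control relative to untreated controls.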

[4] = test system: Phytophthora infestans; conditions: for Test D disease control rating (100 = 100% disease control, 0 = no disease control): tomato seedlings sprayed to run-off, inoculated the following day, rating relative to controls, unmarked compounds (standard test rate); for Test D disease control rating: tomato late blight
[5] = test system: Puccinia recondita; test: Test B: wheat leaf rust, preventive spray on wheat seedlings; conditions: for Test B disease control rating (100 = 100% disease control, 0 = no disease control): wheat seedlings sprayed to run-off, inoculated the following day, rating relative to controls, unmarked compounds (standard test rate); for Test B disease control rating: wheat leaf rust
Outline: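 Wheat seedlings were sprayed to run-off with compound (3% acetone, 250 ppm Trem 014), then inoculated with P. recondita spores the next day. They were held 24 h saturated at 20 °C, then 6 days at 20 °C. Ratings are 0–100% disease control versus controls.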

[6] = 100 = 100% disease control, 0 = no control, unmarked entries (standard test concentration)
[7] = 100 = 100% disease control, 0 = no control relative to controls, unmarked entries (standard test concentration)

Row | Structure (SMILES) | Test C disease control rating [1, 6] | Test E disease control rating [2, 6] | Test A disease control rating [3, 7] | Test D disease control rating [4, 6] | Test B disease control rating [5, 6] | also measured
1 | CC(COc1c(F)ccc(F)c1C#N)NC(=O)C(C#N)C(C)C(C)(C)C (mixture of isomers) [compound 279] |  |  |  |  |  | Test C disease control rating (100 = 100% disease control, 0 = no disease control) [1]: 0%; Test E disease control rating (100 = 100% disease control, 0 = no disease control) [2]: 0%; Test A disease control rating (100 = 100% disease control, 0 = no disease control) [3]: 56%; Test D disease control rating (100 = 100% disease control, 0 = no disease control) [4]: 0%; Test B disease control rating (100 = 100% disease control, 0 = no disease control) [5]: 0%
2 | C=CCC(C#N)C(=O)NC(C)C(Oc1ccccc1C#N)c1ccccc1 (mixture of isomers) [compound 285] |  |  |  |  |  | Test C disease control rating (100 = 100% disease control, 0 = no disease control) [1]: 97%; Test E disease control rating (100 = 100% disease control, 0 = no disease control) [2]: 0%; Test A disease control rating (100 = 100% disease control, 0 = no disease control) [3]: 59%; Test D disease control rating (100 = 100% disease control, 0 = no disease control) [4]: 0%; Test B disease control rating (100 = 100% disease control, 0 = no disease control) [5]: 0%
3 | C=CC(C)(C)C(C#N)C(=O)N[C@H](C)COc1cc(Cl)ccc1Cl (single isomer, unassigned) [215b] |  |  |  |  |  | Test C disease control rating (100 = 100% disease control, 0 = no disease control) [1]: 99%; Test E disease control rating (100 = 100% disease control, 0 = no disease control) [2]: 83%; Test A disease control rating (100 = 100% disease control, 0 = no disease control) [3]: 0%; Test D disease control rating (100 = 100% disease control, 0 = no disease control) [4]: 76%; Test B disease control rating (100 = 100% disease control, 0 = no disease control) [5]: 28%
4 | C[C@H](COc1ccc(F)c(F)c1Br)NC(=O)C(C#N)C(C)(C)C (single isomer, unassigned) [187a] | 94% | 6% | 0% | 9% | 28% | 
5 | CCC1(C(=O)NC(C)COc2c(Cl)ccc(Cl)c2Cl)C(C)C1(Cl)Cl (centres unmarked) [compound 117] |  |  |  |  |  | Test C disease control rating ([1]; tested at 40 ppm): 74%; Test E disease control rating ([2]; tested at 40 ppm): 0%; Test A disease control rating ([3]; tested at 40 ppm): 83%; Test D disease control rating ([4]; tested at 40 ppm): 0%; Test B disease control rating ([5]; tested at 40 ppm): 0%
6 | CCC1(C(=O)NC(C)COc2cccc(I)c2C#N)C(C)C1(Cl)Cl (mixture of isomers) [compound 132] | 0% | 0% | 0% | 2% | 0% | 
7 | C=CCc1cccc(C#N)c1OCC(C)NC(=O)C(C#N)C(C)C(C)(C)C (mixture of isomers) [compound 275] |  |  |  |  |  | Test C disease control rating (100 = 100% disease control, 0 = no disease control) [1]: 53%; Test E disease control rating (100 = 100% disease control, 0 = no disease control) [2]: 99%; Test A disease control rating (100 = 100% disease control, 0 = no disease control) [3]: 0%; Test D disease control rating (100 = 100% disease control, 0 = no disease control) [4]: 0%; Test B disease control rating (100 = 100% disease control, 0 = no disease control) [5]: 0%
8 | CC(COc1ccc(Br)cc1)NC(=O)C(C#N)C(C)(C)C (single isomer, unassigned) [10b] | 86% | 0% | 62% | 95% | 67% | 
9 | CC(COc1c(C#N)cccc1C(F)F)NC(=O)C(C#N)C(C)(C)C (mixture of isomers) [compound 206] | 74% | 0% | 0% | 0% | 0% | 
10 | C[C@H](COc1ccc(F)cc1Cl)NC(=O)C(C#N)C(C)(C)C (single isomer, unassigned) [37a] | 100% | 0% | 62% | 68% | 68% | 
11 | C[C@H](COc1ccc(F)cc1Br)NC(=O)C(C#N)C(C)(C)C (single isomer, unassigned) [165a] | 74% | 86% | 86% | 23% | 0% | 
12 | CC(C)(C)C(C#N)C(=O)NC/C=C/c1ccc(F)cc1F (racemic) [compound 273] |  |  |  |  |  | Test C disease control rating (100 = 100% disease control, 0 = no disease control) [1]: 53%; Test E disease control rating (100 = 100% disease control, 0 = no disease control) [2]: 0%; Test A disease control rating (100 = 100% disease control, 0 = no disease control) [3]: 86%; Test D disease control rating (100 = 100% disease control, 0 = no disease control) [4]: 23%; Test B disease control rating (100 = 100% disease control, 0 = no disease control) [5]: 0%
13 | CCC1(C(=O)NCC(C)=Cc2cc(Cl)ccc2Cl)C(C)C1(Cl)Cl (centres unmarked) [compound 270] |  |  |  |  |  | Test C disease control rating (100 = 100% disease control, 0 = no disease control) [1]: 91%; Test E disease control rating (100 = 100% disease control, 0 = no disease control) [2]: 0%; Test A disease control rating (100 = 100% disease control, 0 = no disease control) [3]: 77%; Test D disease control rating (100 = 100% disease control, 0 = no disease control) [4]: 96%; Test B disease control rating (100 = 100% disease control, 0 = no disease control) [5]: 0%
14 | C[C@H](COc1ccc(Cl)cc1Cl)NC(=O)C(C#N)C(C)(C)C (single isomer, unassigned) [32a] | 91% | 0% | 0% | 0% | 27% | 
15 | C[C@H](COc1cc(F)c(Cl)cc1F)NC(=O)C(C#N)C(C)(C)C (single isomer, unassigned) [173a] | 52% | 0% | 63% | 33% | 28% | 
16 | CCC1(C(=O)NC(C)COc2c(F)cccc2C#N)C(C)C1(Cl)Cl (mixture of isomers) [compound 128] | 74% | 0% | 86% | 13% | 0% | 
17 | CC(COc1ccc(Cl)cc1)NC(=O)C(C#N)C(C)(C)C (single isomer, unassigned) [7a] | 91% | 0% | 77% | 89% | 85% | 
18 | CCC1(C(=O)NC(C)COc2ccc(F)cc2Cl)C(C)C1(Cl)Cl (centres unmarked) [compound 121] |  |  |  |  |  | Test C disease control rating ([1]; tested at 40 ppm): 53%; Test E disease control rating ([2]; tested at 40 ppm): 0%; Test A disease control rating ([3]; tested at 40 ppm): 71%; Test D disease control rating ([4]; tested at 40 ppm): 0%; Test B disease control rating ([5]; tested at 40 ppm): 0%
19 | Cc1c(Cl)cc(C#N)n1OCC(C)NC(=O)C(C#N)C(C)(C)C (mixture of isomers) [compound 49] | 0% | 0% | 0% | 0% | 0% | 
20 | CCC1(C(=O)NC(C)COc2ccccc2C#N)C(C)C1(Cl)Cl (mixture of isomers) [89a] | 74% | 0% | 0% | 20% | 0% | 
21 | C[C@H](COc1ccc(Br)cc1)NC(=O)C(C#N)C(C)(C)C (single isomer, unassigned) [10d] | 74% | 45% | 77% | 35% | 0% | 
22 | Cc1cccc(OCC(C)NC(=O)C(C#N)C(C)(C)C)c1 (mixture of isomers) [compound 176] | 94% | 6% | 77% | 56% | 0% | 
